According to the NIST ThermoML archive (doi:10.1016/j.jct.2015.06.002):
± gives the expanded uncertainty stated by the source.

Assays:
[1] = 298.15 K; Liquid; Gas chromatography
[2] = Boiling temperature at pressure P; settings: Liquid, Gas chromatography

vapor or sublimation pressure [1]: 8.3e-05 ± 2.5e-05 kPa | Boiling temperature at pressure P ([2]; 0.267 kPa): 116 ± 20 °C | Boiling temperature at pressure P ([2]; 101.33 kPa): 276.0 ± 20 °C
SMILES: C/C=C/C=C/CCCCCCCO [(E,E)-8,10-dodecadien-1-ol]
